From US20230295255A1, “ANNEXIN A1-DERIVED POLYPEPTIDE ANALOGUES” (Reso Ther Pharma A/S, priority 2020, published 2023)
Ends that are not written are not given here.

What was measured:
[1] = Determination of terminal half times after intravenous injection in rats (plasma, LC/MS-MS); design: species or system Male Wistar rats; settings: in vivo, rat, read-out: terminal half time (t½)
Method: Male Wistar rats (Crl:WI(Han), Charles River, Germany, weight 300 g±20 g were kept in transparent polycarbonate cages (floor area: 1500 cm^2—height: at least 21 cm) with two in each cage, males and females separated at a temperature of 21° C.±3° C. and relative humidity of 55%±15% with a 12 hours light and 12 hours darkness (Light on from 06:00 to 18:00 h). Following a minimum of five days acclimatization the animals received an intravenous injection of test item through the tail vein given over 60 seconds using a butterfly syringe with volume adjusted according to the most recent body weight data. The butterfly was flushed with 0.4 mL 0.9% NaCl immediately after injection. […]. The dose volume was 5 mL/kg body weight.
The following doses of test item was given: 0.1, 1 and 10 mg/kg in 5% glucose; 1.0 mM acetic acid. Six animals were treated on each dose level.
(§1) On the day of dosing blood samples of approximately 0.4 mL was drawn using the sublingual method. The blood was sampled into a collecting tube containing K2EDTA as anticoagulant. After collection, the collecting tube was immediately labelled and placed in ice water (sufficient to cover the blood entirely) until centrifugation. Within 20 minutes after blood sampling, blood was centrifuged for 8 minutes at 2150 G, at +4° C.). The entire plasma sample was transferred to Eppendorf microcentrifuge tubes (Polypropylene tubes with Eppendorf Safe-Lock lid, Sigma, Denmark). Within 30 minutes after centrifugation, plasma was snap frozen on dry ice and stored at −70° C. or below.
Time point for blood sampling: 2, 5, 10 and 20 min from completion of dosing.
Plasma concentration of the test item was measured by use of LC/MS-MS.

[2] = Determination of terminal half times after intravenous injection in beagle dogs (plasma, LC/MS-MS); format: in vivo; settings: dog; for half-life: in vivo, intravenous, read-out: terminal half time (t½)
Method: 6 beagle dogs, 3 males and 3 females, HsdRcc:DOBE from Marshall BioResources, F-03800 Gannat, France. Age 5-6 months, weight 6-8 kg were kept 21° C.±3° C. with relative humidity of 55%±15% with 12 hours light and 12 hours darkness (Light on from 06:00 to 18:00 h). Male and females kept separate.
Following a pre-treatment period of a minimum of two weeks the animals received an intravenous injection of test item through the cephalic vein given over 5 min using a butterfly syringe with volume adjusted according to the most recent body weight data. The butterfly was flushed with 5 ml 0.9% NaCl immediately after injection. The dose volume was 5 mL/kg body weight. One male and one female were treated at each dose level.
The following doses of test item was given: 2, 6 and 10 mg/kg in 5% glucose; 1.0 mM acetic acid. One male and one female were treated on each dose level. For the control peptide the doses given were: 1, 3 and 10 mg/kg.
as §1, with “Blood samples for determination” for “On the day”, “plasma levels of test item” for “dosing blood samples”, “mL per sample” for “mL”, “from” for “using”, “contralateral cephalic vein.” for “sublingual method.”
Plasma concentration of test item and control peptide was measured by use of LC/MS-MS.

[3] = Liver injury assessment: blood levels of alanine aminotransferase (ALT) in HFD NASH model; format: in vivo, C57BL/6 mice; settings: HFD mice, after 6 weeks treatment, i.p.; AnxA1 1 mg/kg/day, Test Item A 250 μg/kg/day
Method: (§2) Male C57BL/6 mice were housed (7-9/cage) in pathogen free conditions and maintained at constant room temperature (20-22° C.) with free access to water and food under a 12 h light/dark cycle (lights on at 07:00 h). […] This diet leads within 16 weeks to steatohepatitis associated with obesity and insulin resistance, which mimics what is seems in humans suffering from NASH. The control group received ad libitum normal chow for 16 weeks. The body weight for each mouse was recorded weekly by using a dedicated digital balance (each Friday afternoon—starting from 5 pm).
Liver injury was assessed before and after treatment with test compound, control compound or vehicle by evaluating blood levels of alanine aminotransferase (ALT) with a spectrophotometric kit. Blood sampling was carried out by retro-orbital bleeding.
Mice were divided in experimental groups as below: • A: Non HFD: Time control group: Had access to standard chow diet throughout the study period • B: Vehicle: Vehicle treatment group: Received HFD+Vehicle treatment (sterile saline injections) once daily • C: AnxA1: AnnexinA1 treatment group: Received HFD+Annexin A1 full-length protein at a dose of 1 mg/kg/day. • D: Test Item A: Test compound A group: Received HDF+250 μg/kg/day of Test compound A=[…] (SEQ ID NO:4); (AnxA1 (2-46 Val24Leu). […]

[4] = Body weight and liver weight in experimental model of Nonalcoholic Steatohepatitis (HFD mice); format: in vivo, C57BL/6 mice; settings: end of 6 weeks treatment, i.p. once daily 5 days a week, AnxA1 1 mg/kg/day, Test Item A 250 μg/kg/day
Method: as §2
(§3) Mice were divided in experimental groups as below: • A: Non HFD: Time control group: Had access to standard chow diet throughout the study period • B: Vehicle: Vehicle treatment group: Received HFD+Vehicle treatment (sterile saline injections) once daily • C: AnxA1: AnnexinA1 treatment group: Received HFD+Annexin A1 full-length protein at a dose of 1 mg/kg/day. • D: Test Item A: Test compound A group: Received HDF+250 μg/kg/day of Test compound A=[…] (SEQ ID NO:4); (AnxA1 (2-46 Val24Leu).
Treatment was commended following 10 weeks HFD and was given as a once daily intraperitoneal given 5 days a week (Monday-Friday) for 6 weeks. The animals were kept on HFD during the 6 weeks treatment period. […]

TNF-α = assay: Low grade inflammation: liver expression level of TNF-α by real time PCR in HFD NASH model; format: in vivo, C57BL/6 mice; settings: HFD mice, AnxA1 1 mg/kg/day, Test Item A 250 μg/kg/day
Method: as §2
Low inflammation in the livers was determined by the expression level of TNF-α measured by real time PCR using a commercial available tracer.
as §3
Treatment was commended following 10 weeks HFD and was given as a once daily intraperitoneal given 5 days a week (Monday-Friday) for 6 weeks. […]

Molecule: AMVSEFLKQAWFIENEEQEYVQTLKSSKGGPGSAVSPYPTFNPSS [Test Item A]
- half-life ([1]; 0.1 mg/kg): 3.18 min
- half-life ([1]; 1 mg/kg): 2.87 min
- half-life ([1]; 10 mg/kg): 5.85 min
- terminal half time (t½) of test item, times longer than the control peptide ([2]; single intravenous dosing): up to 4.8 times
- half-life ([2]; 2 mg/kg): 9.16 min
- half-life ([2]; 6 mg/kg): 19.8 min
- half-life ([2]; 10 mg/kg): 28.3 min

Molecule: AMVSEFLKQAWFIENEEQEYVQTLKSSKGGPGSAVSPYPTFNPSSDV [control peptide, reference compound]
- half-life ([2]; 1 mg/kg): 5.57 min
- half-life ([2]; 3 mg/kg): 5.69 min
- half-life ([2]; 10 mg/kg): 5.86 min

B1: AnxA1: full length Annexin A1 protein (Homo sapiens, SEQ ID NO:1) (protein, listed as Homo Sapiens)
chain: MAMVSEFLKQAWFIENEEQEYVQTVKSSKGGPGSAVSPYPTFNPSSDVAALHKAIMVKGVDEATIIDILTKRNNAQRQQIKAAYLQETGKPLDETLKKALTGHLEEVVLALLKTPAQFDADELRAAMKGLGTDEDTLIEILASRTNKEIRDINRVYREELKRDLAKDITSDTSGDFRNALLSLAKGDRSEDFGVNEDLADSDARALYEAGERRKGTDVNVFNTILTTRSYPQLRRVFQKYTKYSKHDMNKVLDLELKGDIEKCLTAIVKCATSKPAFFAEKLHQAMKGVGTRHKALIRIMVSRSEIDMNDIKAFYQKMYGISLCQAILDETKGDYEKILVALCGGN
- ALT (blood alanine aminotransferase) [3]: 100 u/L
- Bodyweight, mean value per group [4]: 32.5 g
- Liver Weight, mean value per group [4]: 2.0 g
- Relative expression levels of TNF-α with the mean expression in group B (vehicle) set to 1 (TNF-α): 1.17±023
